Assay results taken from the NIST ThermoML archive (doi:10.1021/je301284x).
± gives the expanded uncertainty stated by the source.

Assays:
[1] = for mass density / electrical conductivity / viscosity: 101.33 kPa, Liquid; for mass density: Vibrating tube method; for viscosity: Concentric cylinders viscometry; for Normal melting temperature: Crystal; for Normal melting temperature / Glass transition temperature: DTA
[2] = Molar enthalpy of transition or fusion; conditions: Crystal; DSC

Structure (SMILES)	mass density ([1]; 293.15 K)	mass density ([1]; 298.15 K)	electrical conductivity ([1]; 303.15 K)	viscosity ([1]; 303.15 K)	mass density ([1]; 303.15 K)	mass density ([1]; 308.15 K)	mass density ([1]; 313.15 K)	electrical conductivity ([1]; 323.15 K)	viscosity ([1]; 323.15 K)	electrical conductivity ([1]; 343.15 K)	viscosity ([1]; 343.15 K)	electrical conductivity ([1]; 363.15 K)	viscosity ([1]; 363.15 K)	electrical conductivity ([1]; 383.15 K)	viscosity ([1]; 383.15 K)	electrical conductivity ([1]; 403.15 K)	electrical conductivity ([1]; 423.15 K)	electrical conductivity ([1]; 443.15 K)	Normal melting temperature [1]	Molar enthalpy of transition or fusion [2]	further results
C=CC[NH+](C)CC=C.O=S(=O)([O-])C(F)(F)F	1261 ± 26 kg/m3	1253 ± 26 kg/m3	0.469 ± 0.009 S/m	38.5 ± 1.3 mPa·s	1246 ± 26 kg/m3	1239 ± 26 kg/m3	1231 ± 26 kg/m3	0.893 ± 0.018 S/m	19.7 ± 0.6 mPa·s	1.43 ± 0.03 S/m	11.6 ± 0.4 mPa·s	2.06 ± 0.04 S/m	7.61 ± 0.25 mPa·s	2.74 ± 0.06 S/m	5.39 ± 0.18 mPa·s	3.54 ± 0.07 S/m	4.39 ± 0.09 S/m	5.21 ± 0.1 S/m	-19.00 ± 1 °C	2.63 ± 0.239 kcal/mol	mass density ([1]; 288.15 K): 1268 ± 27 kg/m3; Glass transition temperature [1]: -88.00 ± 5 °C
C=CC[NH+](CC)CC.O=S(=O)([O-])C(F)(F)F [N,N-diethylprop-2-en-1-aminium trifluoromethanesulfonate]	1263 ± 26 kg/m3	1255 ± 26 kg/m3	0.419 ± 0.008 S/m	51 ± 1.7 mPa·s	1247 ± 26 kg/m3	1240 ± 26 kg/m3	1232 ± 26 kg/m3	0.785 ± 0.016 S/m	25.5 ± 0.8 mPa·s	1.26 ± 0.03 S/m	14.9 ± 0.5 mPa·s	1.81 ± 0.04 S/m	9.64 ± 0.31 mPa·s	2.43 ± 0.05 S/m	6.7 ± 0.22 mPa·s	3.17 ± 0.06 S/m	3.91 ± 0.08 S/m	4.71 ± 0.09 S/m	-14.00 ± 1 °C	5.02 ± 0.478 kcal/mol	mass density ([1]; 288.15 K): 1270 ± 27 kg/m3; viscosity ([1]; 403.15 K): 4.94 ± 0.16 mPa·s; viscosity ([1]; 423.15 K): 3.87 ± 0.13 mPa·s; Glass transition temperature [1]: -99.00 ± 6 °C
CCC[NH+](CC)CC.O=S(=O)([O-])C(F)(F)F [N,N-diethylpropan-1-aminium trifluoromethanesulfonate]	1229 ± 26 kg/m3	1222 ± 26 kg/m3	0.384 ± 0.008 S/m	54.3 ± 1.8 mPa·s	1215 ± 25 kg/m3	1208 ± 25 kg/m3	1201 ± 25 kg/m3	0.71 ± 0.014 S/m	26.8 ± 0.9 mPa·s	1.13 ± 0.02 S/m	15.3 ± 0.5 mPa·s	1.71 ± 0.03 S/m	9.76 ± 0.32 mPa·s	2.22 ± 0.04 S/m	6.71 ± 0.22 mPa·s	2.88 ± 0.06 S/m	3.57 ± 0.07 S/m	4.31 ± 0.09 S/m	-14.00 ± 1 °C	5.02 ± 0.478 kcal/mol	mass density ([1]; 288.15 K): 1237 ± 26 kg/m3; viscosity ([1]; 403.15 K): 4.87 ± 0.16 mPa·s; viscosity ([1]; 423.15 K): 3.73 ± 0.12 mPa·s
C=CC[NH+](C)C.O=S(=O)([O-])C(F)(F)F [N,N-dimethylprop-2-en-1-aminium trifluoromethanesulfonate]	1311 ± 28 kg/m3	1303 ± 27 kg/m3	0.968 ± 0.019 S/m	28.8 ± 0.9 mPa·s	1295 ± 27 kg/m3	1288 ± 27 kg/m3	1280 ± 27 kg/m3	1.74 ± 0.04 S/m	16.4 ± 0.5 mPa·s	2.65 ± 0.05 S/m	10.4 ± 0.3 mPa·s	3.73 ± 0.07 S/m	7.11 ± 0.23 mPa·s	4.92 ± 0.1 S/m	5.18 ± 0.17 mPa·s	6.19 ± 0.12 S/m	7.48 ± 0.15 S/m	8.82 ± 0.18 S/m	16.00 ± 1 °C	5.02 ± 0.478 kcal/mol	mass density ([1]; 288.15 K): 1318 ± 28 kg/m3; viscosity ([1]; 403.15 K): 3.95 ± 0.13 mPa·s; viscosity ([1]; 423.15 K): 3.17 ± 0.1 mPa·s
CCC[NH+](C)C.O=S(=O)([O-])C(F)(F)F [N,N-dimethylpropan-1-aminium trifluoromethanesulfonate]	1284 ± 27 kg/m3	1276 ± 27 kg/m3	0.901 ± 0.018 S/m	33.2 ± 1.1 mPa·s	1269 ± 27 kg/m3	1262 ± 26 kg/m3	1254 ± 26 kg/m3	1.57 ± 0.03 S/m	18 ± 0.6 mPa·s	2.39 ± 0.05 S/m	11 ± 0.4 mPa·s	3.25 ± 0.07 S/m	7.42 ± 0.24 mPa·s	4.29 ± 0.09 S/m	5.32 ± 0.17 mPa·s	5.3 ± 0.11 S/m	6.4 ± 0.13 S/m	7.68 ± 0.15 S/m	20.00 ± 1 °C	4.78 ± 0.478 kcal/mol	mass density ([1]; 288.15 K): 1291 ± 27 kg/m3; viscosity ([1]; 403.15 K): 4.04 ± 0.13 mPa·s; viscosity ([1]; 423.15 K): 3.19 ± 0.1 mPa·s
CCC[NH+](C)CCC.O=S(=O)([O-])C(F)(F)F [N-methyl-N-propylpropan-1-aminium trifluoromethanesulfonate]	1218 ± 25 kg/m3	1211 ± 25 kg/m3	0.415 ± 0.008 S/m	48.7 ± 1.6 mPa·s	1203 ± 25 kg/m3	1196 ± 25 kg/m3	1189 ± 25 kg/m3	0.772 ± 0.015 S/m	23.9 ± 0.8 mPa·s	1.23 ± 0.03 S/m	13.6 ± 0.4 mPa·s	1.81 ± 0.04 S/m	8.63 ± 0.28 mPa·s	2.48 ± 0.05 S/m	5.96 ± 0.19 mPa·s	3.18 ± 0.06 S/m	4.04 ± 0.08 S/m	4.88 ± 0.1 S/m	17.00 ± 1 °C	3.35 ± 0.478 kcal/mol	viscosity ([1]; 403.15 K): 4.4 ± 0.14 mPa·s; viscosity ([1]; 423.15 K): 3.44 ± 0.11 mPa·s
CC[NH+](C)CC.O=S(=O)([O-])C(F)(F)F [diethylmethylammonium trifluoromethanesulfonate]	1292 ± 27 kg/m3	1284 ± 27 kg/m3	0.833 ± 0.017 S/m	36.9 ± 1.2 mPa·s	1277 ± 27 kg/m3	1270 ± 27 kg/m3	1262 ± 26 kg/m3	1.45 ± 0.03 S/m	19.4 ± 0.6 mPa·s	2.15 ± 0.04 S/m	12.1 ± 0.4 mPa·s	3.15 ± 0.06 S/m	8.13 ± 0.26 mPa·s	3.91 ± 0.08 S/m	5.82 ± 0.19 mPa·s	4.73 ± 0.09 S/m	5.46 ± 0.11 S/m	5.97 ± 0.12 S/m	-6.00 ± 1 °C	3.82 ± 0.478 kcal/mol	mass density ([1]; 288.15 K): 1299 ± 27 kg/m3; viscosity ([1]; 403.15 K): 4.41 ± 0.14 mPa·s; viscosity ([1]; 423.15 K): 3.48 ± 0.11 mPa·s
